In this experiment the test system is unpredictable long-term stimulus model. In words: Rat swimming by compulsion, unpredictable long-term stimulus model (Experiment 8). Type of experiment: in vivo. The settings on record: 2 mg/kg/d into the stomach, 24 days; 1 h after dose; last 5 minutes. The procedure:
Unpredictable long-term stimulus model: Health Wistar male rats, secondary, 240˜270 g of body weight, are purchased from Beijing Vital River Experimental Animal Technology Ltd. Co. (The quality certificate number: SOCK (JING) 2002-2003).
The above pharmaceuticals are prepared with 0.5% of sodium carboxymethylcellulose (CMC-Na) for feeding into the stomach. Benzylpenicillin sodium for injection is the product of North China Pharmaceutical Huasheng Co. Ltd. (Lot: S0511204), and norepinephrine (NE) and 5-hydrotryptamine (5-HT) standards are the products of Sigma Co. Other reagents are all marketed.
8.4.1 Group division and administration of drug: The rats are grouped randomly into 6 groups. 1. False therapy group; 2. model group (control); 3. high dose of Embodiment 4 (60 mg/kg/d); 4. middle dose of Embodiment 4 (30 mg/kg/d); 5. low dose of Embodiment 4 (15 mg/kg/d); and 6. […]
8.5.3 Rat swimming by compulsion: This experiment is proceeded for two days after the last administration of drug. […] After 1 hour of administration of drug, the rat is placed in the tank, and the time of non-movement of the rat for the last 5 minutes is recorded.
8.6 Statistic calculation: The experimental data are represented as […], and the experimental result is calculated as ANOVA by SPSS 11.5 statistic software.

As to `Fc1ccc([C@@H]2CCNC[C@H]2COc2ccc3c(c2)OCO3)cc1` [Paroxetine], the Time of non-movement is on record as 31.38 ± 19.59 s.

Values taken from US20100311674A1, “PHARMACEUTICAL COMPOSITIONS WITH A MECHANISM OF MULTI-TARGET RECEPTOR RETROACTION FOR TREATING DEPRESSION” (Yu-Fen Chi, priority 2007, published 2010).
